Test results: US20220016092A1, “METHODS FOR TREATING SYMPTOMS AND DISORDERS ASSOCIATED WITH LYSOSOMAL STORAGE DISEASES” (GENZYME CORPORATION, priority 2019, published 2022)
Where “and” joins values, the source holds several entries; their conditions need not be identical. Identical values can stand only once.

What was measured:
Type in all cases: in vivo, human
[1] = system: adult patients with Gaucher disease Type 3; assay: Clinical study in GD-3 patients: resting-state fMRI connectivity; conditions: 15 mg/day + imiglucerase, individual Patients 1, 3, 4, 5, 6 (Patient 5 likely non-compliant)
Description: Neurological function-was further evaluated using functional magnetic resonance imaging (fMRI). Patient 2 was excluded because no fMRI data was collected at the Week 52 session. Resting-state fMRI screening sessions were performed at baseline screening, Week 26, and Week 52 visits. Connectivity estimates from four subjects (Patients 1, 3, 4 and 5) were entered into second-level analyses as a “compliant” group. Patient 5 was isolated due to likely non-compliance with study medication, as described above. Analyses were performed as described elsewhere (Smith et al. [2009]).
Spatial analysis of the connectivity between different anatomic regions of the brain is performed to define a correlation coefficient for regressed voxelwise mean intensity.

[2] = Study 1 Part 2: pharmacokinetics with and without a high-fat meal; conditions: healthy men, single oral 5 mg dose
Text: Study 1 was a 2-part single-center trial in healthy adult male volunteers.
Part 1 of the study enrolled and randomized 55 healthy men (placebo, n=14; 2-, 5-, 15, 25-, 50, and 100-mg doses, n=6 each; 150-mg dose, n=5). Eight healthy men participated in Part 2.
After a 7-day washout period, participants were crossed over to the other condition.

[3] = system: GL-3 inclusions in skin cells; assay: Clinical study in Fabry disease patients: skin GL-3 inclusion score by light microscopy
Description: (§1) A three-year open-label investigation of Compound 2 in young classic Fabry disease patients was conducted in order to evaluate the long-term safety, pharmacodynamics and exploratory efficacy of Compound 2 in adult male Fabry patients. Eleven subjects enrolled in the study, and seven subjects completed all aspects of the study. All subjects were males diagnosed with classic Fabry disease confirmed by genotype and residual alpha-galactosidase activity below detection levels (9 of the 11 had nonsense mutation in the GLA gene). All subjects had lyso-GL3 levels in plasma of at least 65 ng/mL and had no prior Fabry disease-specific treatment. The median age of subject was 24 years (range 19-37).
(§2) Each sample was scored independently by 3 pathologists for the presence of GL-3 inclusions on a four-point scale, and rated as 0 (no/trace), 1 (mild), 2 (moderate), or 3 (severe) according to Eng et al., N. Engl. J. Med. 345:9-16 (2001). A single score per patient per time point was derived by taking the score rated by the majority of the three pathologists. If a majority score could not be derived, then the median score was used (resulting in some fractional scores). Plasma samples were also analyzed for GL-3, lyso-GL-3, GL-1 and GM3 at baseline and weeks 12, 26, 52 and 156. Pain scores and abdominal symptoms were analyzed at baseline and weeks 12, 26, 52, 104 and 156 using the SF-36 scoring protocol.

[4] = system: adult male Fabry patients; assay: Clinical study in Fabry disease patients: SF-36 bodily pain and abdominal pain; conditions: 15 mg/day oral
Description: as §1
as §2, with “Pain scores and abdominal symptoms were analyzed at baseline and weeks 12, 26, 52, 104 and 156 using the SF-36 scoring protocol.” left out
Patients were assessed using the Short Form-36 (SF-36) questionnaire on numerous visits from baseline to week 156. This is a 36-item questionnaire used to measure 8 various aspects of health (vitality, physical functioning, bodily pain, general health perceptions, physical role functioning, emotional role functioning, social role functioning and mental health). The score for each of the eight aspects ranges from 0 (maximum disability) to 100 (no disability), and thus, higher scores indicate good health condition. In addition, gastrointestinal symptoms, including abdominal pain, abdominal distention, and bowl movements, were assessed using a modified version of the inflammatory bowel severity scoring system. Particular questions asked as part of these assessments included: (1) whether the patient suffered abdominal pain within the last ten days, (2) what was the severity of abdominal pain suffered in the last ten days using a 0 (no pain) to 100 (very severe pain) scale, and (3) on how many days within the last ten days did the patient have abdominal pain.

[5] = Fabry patients, 15 mg/day oral, by week 156
[6] = Fabry, 15 mg/day, Endothelial Cells, Deep Vessels, 12 weeks
[7] = Fabry, 15 mg/day, Endothelial Cells, Deep Vessels, 26 weeks
[8] = Fabry, 15 mg/day, Endothelial Cells, Deep Vessels, 52 weeks
[9] = Fabry, 15 mg/day, Endothelial Cells, Deep Vessels, 156 weeks
[10] = Fabry, 15 mg/day, Endothelial Cells, Superficial Vessels, 12 weeks
[11] = Fabry, 15 mg/day, Endothelial Cells, Superficial Vessels, 26 weeks
[12] = Fabry, 15 mg/day, Endothelial Cells, Superficial Vessels, 52 weeks
[13] = Fabry, 15 mg/day, Endothelial Cells, Superficial Vessels, 156 weeks
[14] = Fabry, 15 mg/day, Perineurium Cells, 12 weeks
[15] = Fabry, 15 mg/day, Perineurium Cells, 26 weeks
[16] = Fabry, 15 mg/day, Perineurium Cells, 52 weeks
[17] = Fabry, 15 mg/day, Perineurium Cells, 156 weeks
[18] = Fabry, 15 mg/day, Smooth Muscle Cells, Deep Vessels, 12 weeks
[19] = Fabry, 15 mg/day, Smooth Muscle Cells, Deep Vessels, 26 weeks
[20] = Fabry, 15 mg/day, Smooth Muscle Cells, Deep Vessels, 52 weeks
[21] = Fabry, 15 mg/day, Smooth Muscle Cells, Deep Vessels, 156 weeks

CC(C)(NC(=O)O[C@@H]1CN2CCC1CC2)c1csc(-c2ccc(F)cc2)n1 [Compound 2, (S)-quinuclidin-3-yl 2-(2-(4-fluorophenyl)thiazol-4-yl)propan-2-ylcarbamate]
Change in Correlation Coefficient (connectivity default mode network - executive function network) [1]: +0.20 (3×) and −0.13 and +0.70
Effect of a high-fat meal on exposure compared with fasting conditions [2]: no effect
Median tmax ([2]; fed or fasting): 6.00 h
Patients with a 1-point reduction in skin GL-3 score [3, 5]: five
Patients with complete clearance of GL-3 inclusions [3, 5]: two
Patients with no change in skin GL-3 score [3, 5]: one
Number of patients: skin GL-3 Score 1 unchanged [3, 6]: 1/9 (11%)
Number of patients: skin GL-3 Score 2 dropped to 1 [3, 6]: 2/9 (22%)
Number of patients: skin GL-3 Score 2 unchanged [3, 6]: 6/9 (67%)
Number of patients: skin GL-3 Score 1 unchanged [3, 7]: 1/9 (11%)
Number of patients: skin GL-3 Score 2 dropped to 1 [3, 7]: 2/9 (22%)
Number of patients: skin GL-3 Score 2 unchanged [3, 7]: 6/9 (67%)
Number of patients: skin GL-3 Score 2 dropped to 1 [3, 8]: 3/6 (50%)
Number of patients: skin GL-3 Score 2 dropped to 1.5 [3, 8]: 1/6 (17%)
Number of patients: skin GL-3 Score 2 unchanged [3, 8]: 2/6 (33%)
Number of patients: skin GL-3 Score 1 unchanged [3, 9]: 1/6 (17%)
Number of patients: skin GL-3 Score 2 dropped to 0.5 [3, 9]: 1/6 (17%)
Number of patients: skin GL-3 Score 2 dropped to 1 [3, 9]: 3/6 (50%)
Number of patients: skin GL-3 Score 2 unchanged [3, 9]: 1/6 (17%)
Number of patients: skin GL-3 Score 1 raised to 2 [3, 10]: 1/9 (11%)
Number of patients: skin GL-3 Score 1 unchanged [3, 10]: 4/9 (44%)
Number of patients: skin GL-3 Score 2 dropped to 1 [3, 10]: 3/9 (33%)
Number of patients: skin GL-3 Score 2 unchanged [3, 10]: 1/9 (11%)
Number of patients: skin GL-3 Score 1 raised to 2 [3, 11]: 1/9 (11%)
Number of patients: skin GL-3 Score 1 unchanged [3, 11]: 4/9 (44%)
Number of patients: skin GL-3 Score 2 dropped to 1 [3, 11]: 3/9 (33%)
Number of patients: skin GL-3 Score 2 unchanged [3, 11]: 1/9 (11%)
Number of patients: skin GL-3 Score 1 unchanged [3, 12]: 3/6 (50%)
Number of patients: skin GL-3 Score 2 dropped to 1 [3, 12]: 2/6 (33%)
Number of patients: skin GL-3 Score 2 unchanged [3, 12]: 1/6 (17%)
Number of patients: skin GL-3 Score 1 dropped to 0 [3, 13]: 2/6 (33%)
Number of patients: skin GL-3 Score 1 unchanged [3, 13]: 1/6 (17%)
Number of patients: skin GL-3 Score 2 dropped to 1 [3, 13]: 3/6 (50%)
Number of patients: skin GL-3 Score 1 raised to 2 [3, 14]: 1/9 (11%)
Number of patients: skin GL-3 Score 2 unchanged [3, 14]: 8/9 (89%)
Number of patients: skin GL-3 Score 1 raised to 2 [3, 15]: 1/9 (11%)
Number of patients: skin GL-3 Score 2 unchanged [3, 15]: 8/9 (89%)
Number of patients: skin GL-3 Score 1 raised to 2 [3, 16]: 1/6 (17%)
Number of patients: skin GL-3 Score 2 dropped to 1 [3, 16]: 1/6 (17%)
Number of patients: skin GL-3 Score 2 dropped to 1.5 [3, 16]: 1/6 (17%)
Number of patients: skin GL-3 Score 2 unchanged [3, 16]: 3/6 (50%)
Number of patients: skin GL-3 Score 1 unchanged [3, 17]: 1/6 (17%)
Number of patients: skin GL-3 Score 2 dropped to 1.5 [3, 17]: 1/6 (17%)
Number of patients: skin GL-3 Score 2 unchanged [3, 17]: 4/6 (67%)
Number of patients: skin GL-3 Score 1.5 raised to 2 [3, 18]: 2/9 (22%)
Number of patients: skin GL-3 Score 2 unchanged [3, 18]: 7/9 (78%)
Number of patients: skin GL-3 Score 1.5 unchanged [3, 19]: 2/9 (22%)
Number of patients: skin GL-3 Score 2 unchanged [3, 19]: 7/9 (78%)
Number of patients: skin GL-3 Score 1.5 raised to 2 [3, 20]: 1/5 (20%)
Number of patients: skin GL-3 Score 2 unchanged [3, 20]: 4/5 (80%)
Number of patients: skin GL-3 Score 1.5 raised to 2 [3, 21]: 1/6 (17%)
Number of patients: skin GL-3 Score 2 dropped to 1 [3, 21]: 1/6 (17%)
Number of patients: skin GL-3 Score 2 dropped to 1.5 [3, 21]: 1/6 (17%)
Number of patients: skin GL-3 Score 2 unchanged [3, 21]: 3/6 (50%)
Number of Patients Reporting Yes to Abdominal Pain in 10-Days Preceding Visit ([4]; 4 weeks): 4/11
Abdominal Pain Severity Score in 10-Days Preceding Visit (mean value, 0-100 scale) ([4]; 4 weeks (n = 4)): 29.75
Number of Days within Preceding 10 Days with Abdominal Pain (mean value) ([4]; 4 weeks (n = 4)): 2.50
Number of Patients Reporting Yes to Abdominal Pain in 10-Days Preceding Visit ([4]; 12 weeks): 2/10
Abdominal Pain Severity Score in 10-Days Preceding Visit (mean value, 0-100 scale) ([4]; 12 weeks (n = 2)): 40.00
Number of Days within Preceding 10 Days with Abdominal Pain (mean value) ([4]; 12 weeks (n = 2)): 3.50
Number of Patients Reporting Yes to Abdominal Pain in 10-Days Preceding Visit ([4]; 26 weeks): 3/9
Abdominal Pain Severity Score in 10-Days Preceding Visit (mean value, 0-100 scale) ([4]; 26 weeks (n = 3)): 31.33
Number of Days within Preceding 10 Days with Abdominal Pain (mean value) ([4]; 26 weeks (n = 3)): 3.00
Number of Patients Reporting Yes to Abdominal Pain in 10-Days Preceding Visit ([4]; 52 weeks): 2/7
Abdominal Pain Severity Score in 10-Days Preceding Visit (mean value, 0-100 scale) ([4]; 52 weeks (n = 1)): 21.00
Number of Days within Preceding 10 Days with Abdominal Pain (mean value) ([4]; 52 weeks (n = 3)): 0.70
Number of Patients Reporting Yes to Abdominal Pain in 10-Days Preceding Visit ([4]; 104 weeks): 2/7
Abdominal Pain Severity Score in 10-Days Preceding Visit (mean value, 0-100 scale) ([4]; 104 weeks (n = 1)): 21.00
Number of Patients Reporting Yes to Abdominal Pain in 10-Days Preceding Visit ([4]; 156 weeks): 2/7
Abdominal Pain Severity Score in 10-Days Preceding Visit (mean value, 0-100 scale) ([4]; 156 weeks (n = 2)): 15.00
Number of Days within Preceding 10 Days with Abdominal Pain (mean value) ([4]; 156 weeks (n = 2)): 0.20
Patients with decreased severity of abdominal pain, among those with gastrointestinal pain at baseline ([4]; week 26): four out of five
Patients with improved overall bodily pain scores (SF-36) ([4]; week 26): Seven of nine
Patients with reduced number of days with gastrointestinal pain ([4]; week 26): five of five
Patients with decreased severity of abdominal pain, among those with gastrointestinal pain at baseline ([4]; week 156): four out of four
Patients with improved overall bodily pain scores (SF-36) ([4]; week 156): three of six
Patients with reduced number of days with gastrointestinal pain ([4]; week 156): three of four
